For nine molecules, GI50 and TGI results are on record in PubChem BioAssay (NCI).

The structures appear in SMILES notation. Where “and” joins values, the source holds several entries; their conditions need not be identical. Equal entries are not always repeated.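 Each compound was tested at five concentrations against cells in 96-well plates for 48 hours. Here, GI50 denotes the concentration required for 50% inhibition of growth. Definition used: TGI = concentration required for complete inhibition of growth.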

Among the test systems are NCI-H23 lung; M14 melanoma; HL-60(TB) leukemia; KM12 colon; SK-OV-3 ovarian; NCI-H460 lung; UO-31 renal; CAKI-1 renal; HCC-2998 colon; SW-620 colon.
Holding throughout (assay): DTP human tumour cell line panel, 48 h

A word on the GI50: it is the concentration giving 50% growth inhibition. As usually defined, the TGI is the concentration giving total growth inhibition. Low values mean more potent growth arrest, high ones less potent growth arrest.

`O=C1NC(=NCC(CO)c2ccccc2)S/C1=C\c1ccc2ncccc2c1` (stereo not drawn): the GI50 is 12.1 µM in the experiment on NCI-H23 lung; above 25 µM in the experiment with M14 melanoma; 8.34 µM with HL-60(TB) leukemia; 14.7 µM with KM12 colon; above 25 µM in the experiment on SK-OV-3 ovarian; above 16.1 µM in the experiment on NCI-H460 lung. Further, the GI50 with UO-31 renal is above 25 µM; in the experiment with CAKI-1 renal, above 25 µM; in the experiment with HCC-2998 colon, 24.6 µM; in the experiment with SW-620 colon, 7.74 µM. Also, the TGI with NCI-H23 lung, in the experiment with M14 melanoma, in the experiment with HL-60(TB) leukemia, with KM12 colon, in the experiment on SK-OV-3 ovarian and with NCI-H460 lung was above 25 µM each time. The TGI in the experiment on UO-31 renal, in the experiment with CAKI-1 renal, with HCC-2998 colon and in the experiment with SW-620 colon was above 25 µM throughout.
In the case of `CC1=C(N2CC2)C(=O)C(CO)=C(N2CC2)C1=O`, the GI50 is 0.00143 µM in the experiment with NCI-H23 lung; 0.0162 µM with M14 melanoma; 0.000498 µM in the experiment on HL-60(TB) leukemia; 0.0356 µM with KM12 colon; 0.186 µM with SK-OV-3 ovarian; 0.00476 µM in the experiment on NCI-H460 lung. For the same molecule, the GI50 was 0.00512 µM in the experiment with UO-31 renal, 0.00256 µM with CAKI-1 renal, 0.111 µM in the experiment with HCC-2998 colon and 0.00368 µM in the experiment on SW-620 colon. Moreover, the total growth inhibition concentration (TGI) with M14 melanoma is 0.119 µM and 0.0522 µM; with HL-60(TB) leukemia it was 0.0104 µM; with KM12 colon, 0.337 µM; in the experiment with SK-OV-3 ovarian, 1.81 µM; in the experiment on NCI-H460 lung, 1.85 µM; in the experiment with UO-31 renal it was 0.0231 µM and 0.0319 µM. Besides, the concentration for total growth inhibition (TGI) in the experiment with CAKI-1 renal was 0.412 µM and 0.243 µM; in the experiment on HCC-2998 colon, 0.511 µM and 0.29 µM.
As to `CCCNc1nc(N(C)O)nc(N(C)O)n1`, the GI50 was 4.73 µM with NCI-H23 lung; 2.05 µM with M14 melanoma; 0.59 µM in the experiment with HL-60(TB) leukemia; 3.09 µM in the experiment on KM12 colon; 3.46 µM in the experiment with SK-OV-3 ovarian; 0.563 µM in the experiment with NCI-H460 lung. The GI50 in the experiment on UO-31 renal is 0.981 µM; with CAKI-1 renal it was 3.15 µM; with HCC-2998 colon, 3.04 µM; in the experiment on SW-620 colon, 3.46 µM. The total growth inhibition concentration (TGI) with NCI-H23 lung is above 100 µM; in the experiment with M14 melanoma it was above 29.4 µM; in the experiment on HL-60(TB) leukemia, 4.56 µM; in the experiment with KM12 colon it was above 100 µM; in the experiment on SK-OV-3 ovarian, above 100 µM; in the experiment on NCI-H460 lung, above 56.8 µM. Further, the TGI with UO-31 renal was above 40.8 µM; in the experiment on CAKI-1 renal it was 43.7 µM; with HCC-2998 colon, above 100 µM; with SW-620 colon it was above 100 µM.
For `OC(c1cc(C(O)(C(F)(F)F)C(F)(F)F)ncn1)(C(F)(F)F)C(F)(F)F`, the total growth inhibition concentration (TGI) in the experiment with NCI-H23 lung, in the experiment on M14 melanoma, in the experiment on HL-60(TB) leukemia, with KM12 colon, in the experiment on SK-OV-3 ovarian and with NCI-H460 lung was above 10 µM in each case. Moreover, the TGI in the experiment with UO-31 renal, in the experiment with CAKI-1 renal, in the experiment with HCC-2998 colon and in the experiment with SW-620 colon was above 10 µM in each case.
In the case of `O=C(c1cc(=O)c2ccc(O)cc2o1)c1ccc(Cl)cc1Cl`, the TGI in the experiment with NCI-H23 lung is above 73.3 µM; in the experiment on M14 melanoma, 71.3 µM; in the experiment on HL-60(TB) leukemia, above 100 µM; in the experiment with KM12 colon it was above 100 µM; in the experiment with SK-OV-3 ovarian, above 100 µM; in the experiment with NCI-H460 lung, above 100 µM. The TGI is above 82.2 µM with UO-31 renal, above 100 µM with CAKI-1 renal, 58.8 µM in the experiment with HCC-2998 colon and above 54.6 µM in the experiment on SW-620 colon.
Regarding `Nc1nc(N)c2cc(CNc3ccc(Cl)c(Cl)c3)ccc2n1`, the GI50 in the experiment on NCI-H23 lung is 0.71 µM; in the experiment with M14 melanoma it was 0.13 µM; in the experiment with HL-60(TB) leukemia, 0.357 µM; in the experiment with KM12 colon, 0.866 µM; in the experiment on SK-OV-3 ovarian, 1.28 µM; with NCI-H460 lung it was 0.0609 µM. In addition, the GI50 with UO-31 renal is 0.865 µM; in the experiment on CAKI-1 renal it was 1.22 µM; in the experiment with HCC-2998 colon, 0.64 µM; with SW-620 colon it was 0.133 µM. For the same molecule, the TGI in the experiment on NCI-H23 lung amounted to 2.11 µM; with M14 melanoma, 1.7 µM; in the experiment on HL-60(TB) leukemia, 2 µM; with KM12 colon, 2.13 µM; in the experiment with SK-OV-3 ovarian, 2.53 µM; with NCI-H460 lung it was 1.32 µM. For the same molecule, the total growth inhibition concentration (TGI) was determined as 2.17 µM with UO-31 renal, 2.54 µM in the experiment with CAKI-1 renal, 2 µM with HCC-2998 colon and 1.5 µM in the experiment with SW-620 colon.
As to `CCCCCCCCCCCCCCCCOC(=O)C(C(=O)OCCCCCCCCCCCCCCCC)[N+](C)(C)CCOC(C)=O`, the TGI with NCI-H23 lung came to 30.3 µM; with M14 melanoma, 38.5 µM; in the experiment on HL-60(TB) leukemia, 6.12 µM; in the experiment with KM12 colon, 33.8 µM; in the experiment with SK-OV-3 ovarian, 34.8 µM; in the experiment with NCI-H460 lung, 80.6 µM. Also, the TGI turned out to be 34.2 µM in the experiment with UO-31 renal, 30.9 µM in the experiment on CAKI-1 renal, 30.7 µM in the experiment on HCC-2998 colon and 52.4 µM in the experiment on SW-620 colon.
For the molecule `CC(=O)NNc1nc(C)c(C(=O)NNC(=O)C(=O)Nc2ccc(C)c(C)c2)s1`, the TGI with NCI-H23 lung, in the experiment with M14 melanoma, in the experiment on HL-60(TB) leukemia, in the experiment on KM12 colon, with SK-OV-3 ovarian and with NCI-H460 lung was above 100 µM throughout. In addition, the concentration for total growth inhibition (TGI) in the experiment on UO-31 renal, with CAKI-1 renal, with HCC-2998 colon and in the experiment with SW-620 colon was above 100 µM each time.
As for `CCN1CCN(CCOc2ccc(CNc3ccc4nc(CCC5CCCCC5)[nH]c4c3)cc2)CC1`, the GI50 in the experiment with NCI-H23 lung was 2.38 µM; in the experiment on M14 melanoma, 1.68 µM; with HL-60(TB) leukemia, 1.87 µM; in the experiment with KM12 colon it was 2.96 µM; with SK-OV-3 ovarian it was 2.28 µM; in the experiment on NCI-H460 lung it was 2.47 µM. Also, the GI50 in the experiment on UO-31 renal was 1.42 µM; with CAKI-1 renal, 2.01 µM; in the experiment on HCC-2998 colon, 2.22 µM; with SW-620 colon it was 1.91 µM. For the same molecule, the TGI came out at 6.94 µM with NCI-H23 lung; 3.29 µM in the experiment with M14 melanoma; 3.92 µM with HL-60(TB) leukemia; 9.82 µM in the experiment with KM12 colon; 5.16 µM with SK-OV-3 ovarian; 7.27 µM in the experiment on NCI-H460 lung. For the same molecule, the concentration for total growth inhibition (TGI) worked out at 2.79 µM in the experiment with UO-31 renal, 4.11 µM in the experiment with CAKI-1 renal, 5.07 µM with HCC-2998 colon and 4.14 µM in the experiment on SW-620 colon.
